The values below come from patent publication EP0069521A2, “Pyridinyl and imidazolyl derivatives of benzofurans and benzothiophenes” (THE UPJOHN COMPANY, priority 1981, dated 1983).

For this assay, the target named is T1, TXA2 synthetase (Homo sapiens, UniProt P24557).
T1 construct: generated by mixing prostaglandin H2 (PGHz) with human platelet microsomes (HPM); from tissue; host or cells: human platelet microsomes
T1 sequence (P24557 1-533): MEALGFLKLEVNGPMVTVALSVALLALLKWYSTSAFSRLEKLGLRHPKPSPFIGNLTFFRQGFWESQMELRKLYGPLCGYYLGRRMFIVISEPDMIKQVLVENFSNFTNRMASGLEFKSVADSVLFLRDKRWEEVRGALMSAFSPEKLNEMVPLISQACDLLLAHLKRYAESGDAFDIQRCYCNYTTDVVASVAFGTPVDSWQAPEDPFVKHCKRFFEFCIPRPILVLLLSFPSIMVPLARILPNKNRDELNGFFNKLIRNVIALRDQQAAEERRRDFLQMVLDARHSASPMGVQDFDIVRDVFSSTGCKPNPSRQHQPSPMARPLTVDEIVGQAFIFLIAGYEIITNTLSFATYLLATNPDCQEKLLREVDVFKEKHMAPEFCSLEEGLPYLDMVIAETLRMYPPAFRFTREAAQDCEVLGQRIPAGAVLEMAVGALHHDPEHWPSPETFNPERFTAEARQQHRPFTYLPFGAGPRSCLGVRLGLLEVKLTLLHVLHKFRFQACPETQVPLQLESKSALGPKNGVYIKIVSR
The assay can be described thus: TXA2 inhibition test: TXA2 generated by mixing PGH2 with human platelet microsomes, response of superfused rabbit aortic strips. Conditions: inhibiting TXA2 formation; test compound added to human platelet microsomes 5 minutes before mixing with PGH2; rabbit aorta response. The assay is classed as biochemical. The procedure:
The compounds of the present invention were tested for TXA2 inhibition as follows: • Rabbit aortic strips were superfused in series with Krebs solution. Thromboxane Az (TXA2) was generated by mixing prostaglandin H2 (PGHz) with human platelet microsomes (HPM).
Potential inhibitors were tested by comparing the response of the rabbit aorta to the amount of TXA2 produced by mixing PGH2 and HPM without the test compound in the reaction medium and then the amount of TXA2 produced when the test compound was added to the HPM 5 minutes before the HPM was mixed with PGH2. […] For a discussion of TXA2 synthetase inhibition testing see, e.g., R. Gorman, supra.

Structures are written as SMILES.

Regarding `O=C([O-])c1cc2cc(Cc3cccnc3)ccc2o1.[Na+]` [Example A-2, Sodium 5-(3'-pyridinylmethyl)benzofuran-2-carboxylate], the “approximate ED50” value is approximately 0.01 µg/mL.
